Assay results: US20230000813A1, “COMPOUND FOR THE TREATMENT OF BOVINE OR SWINE RESPIRATORY DISEASE” (Intervet Inc., priority 2016, published 2023)
Values after ≈ are worked out from the molar mass of the structure shown.

How the values were obtained:
Test in all cases: MIC, broth-microdilution (CLSI VET01-A4)
Format in all cases: cell-based
[1] = system: Mannheimia haemolytica MH 13093 (XB0472-6014.1, BRD field isolate)
Procedure: (§1) The Minimum inhibitory concentrations (MIC) of compounds according to the invention for a number of veterinary bacterial pathogens were determined by the broth-microdilution method according to CLSI document VET01-A4.
(§2) Microdilution trays containing a doubling dilution series of the test compound were used for the tests. The MIC results were interpreted according to the CLSI documents VET01-S3. The lowest concentration of compound at which no visible growth (i.e. no turbidity) detected by the unaided eye was recorded as the MIC.

[2] = system: Mannheimia haemolytica MH 13065 (XB0446-6003.9, BRD field isolate)
Procedure: as §1, §2

[3] = system: Pasteurella multocida PM 10775 (080130003051, BRD field isolate); conditions: Pasteurella multocida PM 10775
Procedure: as §1, §2
(§3) The Minimum inhibitory concentrations (MIC) of compounds according to the invention were determined by the broth-microdilution method according to CLSI document VET01-A4.
(§4) Microdilution trays containing a doubling dilution series of the test compound were used for the tests.
(§5) The MIC results were interpreted according to the CLSI documents VET01-S3. The lowest concentration of compound at which no visible growth (i.e. no turbidity) detected by the unaided eye was recorded as the MIC.

[4] = system: Pasteurella multocida PM 6391 (ATCC 43137, reference strain); conditions: Pasteurella multocida PM 6391; for MIC: read-out: MIC PM 6391
Procedure: as §1, §2, §3, §4, §5

[5] = system: Mannheimia haemolytica MH 12587 (1071, BRD field isolate, macrolide-resistance: erm+, E+); conditions: Mannheimia haemolytica MH 12587, macrolide-resistant
Procedure: as §1, §2, §3, §4, §5

[6] = system: Pasteurella multocida PM 12080 (IV102277-0093, BRD field isolate); conditions: Pasteurella multocida PM 12080; for MIC: read-out: MIC PM 12080
Procedure: as §1, §2, §3, §4, §5

[7] = system: Mannheimia haemolytica MH 6357 (M7/2, reference strain, cattle infection strain); conditions: Mannheimia haemolytica MH 6357; read-out: MIC MH 6357
Procedure: as §1, §2, §3, §4, §5

[8] = system: Mannheimia haemolytica MH 6374 (ATCC 33396, reference strain); conditions: Mannheimia haemolytica MH 6374; read-out: MIC MH 6374
Procedure: as §1, §2, §3, §4, §5

[9] = system: Pasteurella multocida PM 6267 (P 2225 (L386), reference strain, mouse infection strain); conditions: Pasteurella multocida PM 6267; for MIC: read-out: MIC PM 6267
Procedure: as §1, §2, §3, §4, §5

[10] = system: Mannheimia haemolytica MH 10720 (154, BRD field isolate); conditions: Mannheimia haemolytica MH 10720; for MIC: read-out: MIC MH 10720
Procedure: as §1, §2, §3, §4, §5

| SMILES | MIC [1] [µM] | MIC [2] [µM] | MIC PM 10775 [3] | MIC [4] [µM] | MIC MH 12587 [5] [µM] | MIC [6] [µM] | MIC [7] [µM] | MIC [8] [µM] | MIC PM 6267 [9] | MIC PM 6391 [4] | MIC PM 12080 [6] | MIC [10] [µM] | MIC [9] [µM] | MIC MH 10720 [10] |
| --- | --- | --- | --- | --- | --- | --- | --- | --- | --- | --- | --- | --- | --- | --- |
| C[C@@H](O)[C@H](NC(=O)c1ccc(C#Cc2ccc(CNC3CCC3)s2)cc1)C(=O)NO [Compound 402] | 0.8 (≈ 0.342 µg/mL) | 0.4 (≈ 0.171 µg/mL) | <=0.1 μM | 0.2 (≈ 0.0855 µg/mL) | 1.6 (≈ 0.684 µg/mL) | 0.4 (≈ 0.171 µg/mL) | 0.8 (≈ 0.342 µg/mL) | 0.8 (≈ 0.342 µg/mL) | <=0.1 μM | – | – | – | – | – |
| C[C@@H](O)[C@H](NC(=O)c1ccc(C#Cc2ccc(CNCc3cccnc3)s2)cc1)C(=O)NO [Compound 407] | 0.4 (≈ 0.186 µg/mL) | 0.2 (≈ 0.0929 µg/mL) | <=0.1 μM | – | 0.4 (≈ 0.186 µg/mL) | – | 0.4 (≈ 0.186 µg/mL) | 0.4 (≈ 0.186 µg/mL) | <=0.1 μM | <=0.1 μM | <=0.1 μM | – | – | – |
| COc1ccc(CNCc2ccc(C#Cc3ccc(C(=O)NC(C(=O)NO)C(C)(C)N)cc3)cc2)cc1 (centres unmarked) [Compound 513] | 1.6 (≈ 0.801 µg/mL) | 1.6 (≈ 0.801 µg/mL) | – | 0.2 (≈ 0.1 µg/mL) | 1.6 (≈ 0.801 µg/mL) | 0.2 (≈ 0.1 µg/mL) | 1.6 (≈ 0.801 µg/mL) | 0.8 (≈ 0.4 µg/mL) | – | – | – | 0.2 (≈ 0.1 µg/mL) | 1.6 (≈ 0.801 µg/mL) | – |
| CC(C)(N)C(NC(=O)c1ccc(C#Cc2ccc(CNCc3ccco3)nc2)cc1)C(=O)NO (racemic) [Compound 548] | 1.6 (≈ 0.738 µg/mL) | 0.8 (≈ 0.369 µg/mL) | – | 0.2 (≈ 0.0923 µg/mL) | 1.6 (≈ 0.738 µg/mL) | – | 1.6 (≈ 0.738 µg/mL) | 0.8 (≈ 0.369 µg/mL) | – | – | <=0.1 μM | 0.2 (≈ 0.0923 µg/mL) | 1.6 (≈ 0.738 µg/mL) | – |
| CC(C)(N)C(NC(=O)c1ccc(C#Cc2ccc(CNCc3cccs3)s2)cc1)C(=O)NO (centres unmarked) [Compound 536] | 0.8 (≈ 0.386 µg/mL) | 0.4 (≈ 0.193 µg/mL) | – | – | 0.8 (≈ 0.386 µg/mL) | – | 0.8 (≈ 0.386 µg/mL) | 0.2 (≈ 0.0965 µg/mL) | – | <=0.1 μM | <=0.1 μM | – | 0.8 (≈ 0.386 µg/mL) | <=0.1 μM |
| C=CCNCc1ccc(C#Cc2ccc(C(=O)NC(C(=O)NO)C(C)(C)N)cc2)s1 (centres unmarked) [C. 522] | 1.6 (≈ 0.682 µg/mL) | 0.8 (≈ 0.341 µg/mL) | – | 0.2 (≈ 0.0853 µg/mL) | 1.6 (≈ 0.682 µg/mL) | – | 1.6 (≈ 0.682 µg/mL) | 0.4 (≈ 0.171 µg/mL) | – | – | <=0.1 μM | 0.2 (≈ 0.0853 µg/mL) | 1.6 (≈ 0.682 µg/mL) | – |
| COc1ccc(CNCc2ccc(C#Cc3ccc(C(=O)NC(C(=O)NO)C(C)(C)N)cc3)s2)cc1 (centres unmarked) [Compound 526] | 1.6 (≈ 0.811 µg/mL) | 0.8 (≈ 0.405 µg/mL) | – | 0.2 (≈ 0.101 µg/mL) | 1.6 (≈ 0.811 µg/mL) | 0.2 (≈ 0.101 µg/mL) | 0.8 (≈ 0.405 µg/mL) | 0.4 (≈ 0.203 µg/mL) | – | – | – | 0.2 (≈ 0.101 µg/mL) | 1.6 (≈ 0.811 µg/mL) | – |
| CC(C)(N)C(NC(=O)c1ccc(C#Cc2ccc(CNCc3ccncc3)s2)cc1)C(=O)NO (centres unmarked) [Compound 527] | 1.6 (≈ 0.764 µg/mL) | 0.8 (≈ 0.382 µg/mL) | – | – | 0.8 (≈ 0.382 µg/mL) | – | 0.8 (≈ 0.382 µg/mL) | 0.8 (≈ 0.382 µg/mL) | – | <=0.1 μM | <=0.1 μM | 0.2 (≈ 0.0955 µg/mL) | 1.6 (≈ 0.764 µg/mL) | – |
| Cc1ccc(CNCc2ccc(C#Cc3ccc(C(=O)NC(C(=O)NO)C(C)(C)N)cc3)s2)cc1 (centres unmarked) [Compound 537] | 1.6 (≈ 0.785 µg/mL) | 0.8 (≈ 0.393 µg/mL) | – | 0.2 (≈ 0.0981 µg/mL) | 1.6 (≈ 0.785 µg/mL) | – | 0.8 (≈ 0.393 µg/mL) | 0.8 (≈ 0.393 µg/mL) | – | – | <=0.1 μM | 0.2 (≈ 0.0981 µg/mL) | 1.6 (≈ 0.785 µg/mL) | – |
| CC(C)(C(NC(=O)c1ccc(C#Cc2ccc(CNC3CC3)cc2)cc1)C(=O)NO)[N+](=O)[O-] (centres unmarked) [Compound 554] | 0.4 (≈ 0.18 µg/mL) | 0.4 (≈ 0.18 µg/mL) | – | – | 0.8 (≈ 0.36 µg/mL) | – | 0.4 (≈ 0.18 µg/mL) | 0.4 (≈ 0.18 µg/mL) | – | – | <=0.1 μM | – | 0.4 (≈ 0.18 µg/mL) | <=0.1 μM |
